# Test results: paper PMC5218480 (PLoS ONE, 2017)
# System: MV-4-11 cells
# Assay: Gene expression microarray analysis (Affymetrix PrimeView) and GSEA
# Type: cell-based, human
# Set-up: RFU PODN (11730768_x_at) / Fold change /veh PODN (11730768_x_at) / RFU LINC00158 (11744669_a_at) / Fold change /veh LINC00158 (11744669_a_at) / RFU DUSP10 (11751237_a_at) / Fold change /veh DUSP10 (11751237_a_at) / RFU ID3 (11757404_x_at) / Fold change /veh ID3 (11757404_x_at) / RFU PLEKHG5 (11737974_s_at) / Fold change /veh PLEKHG5 (11737974_s_at) / RFU LRRC4B (11730491_at) / Fold change /veh LRRC4B (11730491_at) / RFU GIMAP4 (11747438_a_at) / Fold change /veh GIMAP4 (11747438_a_at) / RFU KRT8 (11758183_x_at) / Fold change /veh KRT8 (11758183_x_at) / RFU CNN1 (11734310_a_at) / Fold change /veh CNN1 (11734310_a_at) / RFU VPS37D (11726825_at) / Fold change /veh VPS37D (11726825_at) / RFU C10orf10 (11716522_x_at) / Fold change /veh C10orf10 (11716522_x_at) / RFU KIR2DL2 /// KIR2DL4 /// KIR2DL5A /// KIR2DL5B /// KIR2DS1 /// KIR2DS2 /// KIR2DS3 /// KIR2DS4 /// KIR3DL3 /// KIR3DL3 /// KIR3DS1 (11738374_at) / Fold change /veh KIR2DL2 /// KIR2DL4 /// KIR2DL5A /// KIR2DL5B /// KIR2DS1 /// KIR2DS2 /// KIR2DS3 /// KIR2DS4 /// KIR3DL3 /// KIR3DL3 /// KIR3DS1 (11738374_at) / RFU C1QL1 (11718748_at) / Fold change /veh C1QL1 (11718748_at) / RFU TMPRSS4 (11747572_a_at) / Fold change /veh TMPRSS4 (11747572_a_at) / RFU HAMP (11756126_x_at) / Fold change /veh HAMP (11756126_x_at) / RFU RNFT2 (11725882_a_at) / Fold change /veh RNFT2 (11725882_a_at) / RFU NR4A2 (11747474_a_at) / Fold change /veh NR4A2 (11747474_a_at) / RFU ABCC12 (11746883_a_at) / Fold change /veh ABCC12 (11746883_a_at) / RFU TMEM136 (11760407_x_at) / Fold change /veh TMEM136 (11760407_x_at) / RFU CLDN22 /// WWC2 (11732394_at) / Fold change /veh CLDN22 /// WWC2 (11732394_at) / RFU HLA-DPB1 (11760878_x_at) / Fold change /veh HLA-DPB1 (11760878_x_at) / RFU SPINT1 (11716480_a_at) / Fold change /veh SPINT1 (11716480_a_at) / RFU GAP43 (11754022_s_at) / Fold change /veh GAP43 (11754022_s_at) / RFU A4GNT (11735810_at) / Fold change /veh A4GNT (11735810_at) / RFU PRB3 (11715151_x_at) / Fold change /veh PRB3 (11715151_x_at) / RFU TUBB4B (11761932_at) / Fold change /veh TUBB4B (11761932_at) / RFU CAPN14 (11732068_a_at) / Fold change /veh CAPN14 (11732068_a_at) / RFU TMCC2 (11721928_a_at) / Fold change /veh TMCC2 (11721928_a_at) / RFU IRGQ (11745062_a_at) / Fold change /veh IRGQ (11745062_a_at) / RFU FAM174B (11720279_a_at) / Fold change /veh FAM174B (11720279_a_at) / RFU TMPRSS4 (11748680_a_at) / Fold change /veh TMPRSS4 (11748680_a_at) / RFU FAM212B (11763350_a_at) / Fold change /veh FAM212B (11763350_a_at) / RFU PLEKHG5 (11743358_a_at) / Fold change /veh PLEKHG5 (11743358_a_at) / RFU ZSCAN30 (11745921_a_at) / Fold change /veh ZSCAN30 (11745921_a_at) / RFU CMKLR1 (11741424_a_at) / Fold change /veh CMKLR1 (11741424_a_at) / RFU LOC101060620 /// MAPK8IP1 (11723275_at) / Fold change /veh LOC101060620 /// MAPK8IP1 (11723275_at) / RFU SPTSSB (11747773_x_at) / Fold change /veh SPTSSB (11747773_x_at) / RFU PRSS12 (11739890_at) / Fold change /veh PRSS12 (11739890_at) / RFU BIN1 (11741810_x_at) / Fold change /veh BIN1 (11741810_x_at) / RFU WNT11 (11732464_a_at) / Fold change /veh WNT11 (11732464_a_at) / RFU C10orf10 (11716521_a_at) / Fold change /veh C10orf10 (11716521_a_at) / RFU C5orf56 (11738089_at) / Fold change /veh C5orf56 (11738089_at) / RFU CYB561 (11721691_x_at) / Fold change /veh CYB561 (11721691_x_at) / RFU ANKRD19P (11752326_a_at) / Fold change /veh ANKRD19P (11752326_a_at) / RFU OR2T12 /// OR2T33 /// OR2T8 (11738714_s_at) / Fold change /veh OR2T12 /// OR2T33 /// OR2T8 (11738714_s_at) / RFU VCAN (11748164_a_at) / Fold change /veh VCAN (11748164_a_at) / RFU JSRP1 (11732532_at) / Fold change /veh JSRP1 (11732532_at) / RFU KRTAP10-11 (11738290_x_at) / Fold change /veh KRTAP10-11 (11738290_x_at) / RFU MYO3A (11730013_a_at) / Fold change /veh MYO3A (11730013_a_at) / RFU EBF3 (11725865_a_at) / Fold change /veh EBF3 (11725865_a_at) / RFU CAMK2N1 (11719241_x_at) / Fold change /veh CAMK2N1 (11719241_x_at) / RFU C5orf56 (11738088_a_at) / Fold change /veh C5orf56 (11738088_a_at) / RFU OLFML3 (11715873_a_at) / Fold change /veh OLFML3 (11715873_a_at) / RFU LOC100653217 /// NTM (11731650_a_at) / Fold change /veh LOC100653217 /// NTM (11731650_a_at) / RFU MAPK11 (11762145_a_at) / Fold change /veh MAPK11 (11762145_a_at) / RFU FIZ1 (11724087_x_at) / Fold change /veh FIZ1 (11724087_x_at) / RFU OASL (11726364_x_at) / Fold change /veh OASL (11726364_x_at) / RFU SOX15 (11748057_x_at) / Fold change /veh SOX15 (11748057_x_at) / RFU CD79A (11719716_a_at) / Fold change /veh CD79A (11719716_a_at) / RFU HIST1H1D (11736915_at) / Fold change /veh HIST1H1D (11736915_at) / RFU CASKIN2 (11723855_a_at) / Fold change /veh CASKIN2 (11723855_a_at) / RFU LOC730098 (11760151_x_at) / Fold change /veh LOC730098 (11760151_x_at) / RFU OR4N2 (11742367_at) / Fold change /veh OR4N2 (11742367_at) / RFU PRRT2 (11749266_a_at) / Fold change /veh PRRT2 (11749266_a_at) / RFU SNX32 (11753110_a_at) / Fold change /veh SNX32 (11753110_a_at) / RFU CDHR5 (11726645_a_at) / Fold change /veh CDHR5 (11726645_a_at) / RFU RCAN1 (11760418_a_at) / Fold change /veh RCAN1 (11760418_a_at) / RFU FAM167A (11723789_a_at) / Fold change /veh FAM167A (11723789_a_at) / RFU FAM26E (11764081_at) / Fold change /veh FAM26E (11764081_at) / RFU ISYNA1 (11749810_s_at) / Fold change /veh ISYNA1 (11749810_s_at) / RFU ACY1 (11761880_at) / Fold change /veh ACY1 (11761880_at) / RFU 11764098_at / Fold change /veh 11764098_at / RFU SAMD14 (11745864_x_at) / Fold change /veh SAMD14 (11745864_x_at) / RFU NPB (11741838_a_at) / Fold change /veh NPB (11741838_a_at) / RFU TMPRSS6 (11731388_a_at) / Fold change /veh TMPRSS6 (11731388_a_at) / RFU KRTAP10-2 (11738614_at) / Fold change /veh KRTAP10-2 (11738614_at) / RFU ARHGAP8 /// PRR5-ARHGAP8 (11727945_x_at) / Fold change /veh ARHGAP8 /// PRR5-ARHGAP8 (11727945_x_at) / RFU KRTAP5-7 /// NADSYN1 (11734609_at) / Fold change /veh KRTAP5-7 /// NADSYN1 (11734609_at) / RFU RASL12 (11751679_a_at) / Fold change /veh RASL12 (11751679_a_at) / RFU CDKN2B (11736163_a_at) / Fold change /veh CDKN2B (11736163_a_at) / RFU PRF1 (11729649_at) / Fold change /veh PRF1 (11729649_at) / RFU, ZNF638 /// ZNF638-IT1 / Fold change vs veh, ZNF638 /// ZNF638-IT1 / RFU, PANK3 / Fold change vs veh, PANK3 / RFU, SH3YL1 / Fold change vs veh, SH3YL1 / RFU, ZEB2 / Fold change vs veh, ZEB2 / RFU, NRIP1 / Fold change vs veh, NRIP1 / RFU, PTTG1IP / Fold change vs veh, PTTG1IP / RFU, CAPN2 / Fold change vs veh, CAPN2 / RFU, MED14 / Fold change vs veh, MED14 / RFU, SNORA58 / Fold change vs veh, SNORA58 / RFU, C1orf63 / Fold change vs veh, C1orf63 / RFU, LRRFIP1 / Fold change vs veh, LRRFIP1 / RFU, NDUFAF7 / Fold change vs veh, NDUFAF7 / RFU, SLC12A2 / Fold change vs veh, SLC12A2 / RFU, IBTK / Fold change vs veh, IBTK / RFU, ESF1 / Fold change vs veh, ESF1 / Fold change vs veh, TMEM50B / RFU, TAOK1 / Fold change vs veh, TAOK1 / RFU, ACBD3 / Fold change vs veh, ACBD3 / RFU, TMA16 / Fold change vs veh, TMA16 / RFU, RWDD3 / Fold change vs veh, RWDD3 / RFU, BCAT1 / Fold change vs veh, BCAT1 / RFU, EDEM3 / Fold change vs veh, EDEM3 / RFU, TMEM33 / Fold change vs veh, TMEM33 / RFU, WDR75 / Fold change vs veh, WDR75 / RFU, AHCTF1 / Fold change vs veh, AHCTF1 / RFU, TFRC / Fold change vs veh, TFRC / RFU, ZDHHC17 / Fold change vs veh, ZDHHC17 / RFU, NOM1 / Fold change vs veh, NOM1 / RFU, ARL8B / Fold change vs veh, ARL8B / RFU, ZBTB11 / Fold change vs veh, ZBTB11 / RFU, TAMM41 / Fold change vs veh, TAMM41 / RFU, KIAA1704 /// LOC100996395 / Fold change vs veh, KIAA1704 /// LOC100996395 / RFU, ING1 / Fold change vs veh, ING1 / RFU, TRMT61B / Fold change vs veh, TRMT61B / RFU, FUBP3 / Fold change vs veh, FUBP3 / RFU, TP53 / Fold change vs veh, TP53 / RFU, TNKS2 / Fold change vs veh, TNKS2 / RFU, ZFP14 / Fold change vs veh, ZFP14 / RFU, ACTR2 / Fold change vs veh, ACTR2 / RFU, PPP3R1 / Fold change vs veh, PPP3R1 / RFU, PIK3R1 / Fold change vs veh, PIK3R1 / RFU, HNRNPA1 / Fold change vs veh, HNRNPA1 / RFU, RNF170 / Fold change vs veh, RNF170 / RFU, ZNF28 / Fold change vs veh, ZNF28 / RFU, RNGTT / Fold change vs veh, RNGTT / RFU, OGT / Fold change vs veh, OGT / RFU, BRD1 / Fold change vs veh, BRD1 / RFU, MARS / Fold change vs veh, MARS / RFU, ZNF655 / Fold change vs veh, ZNF655 / RFU, FAHD1 / Fold change vs veh, FAHD1 / RFU, BDP1 / Fold change vs veh, BDP1 / RFU, LRRCC1 / Fold change vs veh, LRRCC1 / RFU, ARID1A / Fold change vs veh, ARID1A / RFU, ZNF146 / Fold change vs veh, ZNF146 / RFU, ZNF330 / Fold change vs veh, ZNF330 / RFU, GPN3 / Fold change vs veh, GPN3 / RFU, C9orf123 / Fold change vs veh, C9orf123 / RFU, N4BP2L2 / Fold change vs veh, N4BP2L2 / RFU, ARFIP1 / Fold change vs veh, ARFIP1 / RFU, FAM179B / Fold change vs veh, FAM179B / RFU, BCL10 / Fold change vs veh, BCL10 / RFU, UHRF1BP1L / Fold change vs veh, UHRF1BP1L / RFU, BET1 / Fold change vs veh, BET1 / RFU, CNOT2 / Fold change vs veh, CNOT2 / RFU, ZNF268 / Fold change vs veh, ZNF268 / Fold change vs veh, ZNF507 / RFU, DGCR2 / Fold change vs veh, DGCR2 / RFU, WDSUB1 / Fold change vs veh, WDSUB1 / Fold change vs veh, HSP90B1 /// MIR3652 / RFU, ADSS / Fold change vs veh, ADSS / RFU, GK / Fold change vs veh, GK / RFU, ZNF148 / Fold change vs veh, ZNF148 / RFU, TAF9 / Fold change vs veh, TAF9 / RFU, SLC1A5 / Fold change vs veh, SLC1A5 / RFU, SLMO2 / Fold change vs veh, SLMO2 / RFU, ABCC4 / Fold change vs veh, ABCC4 / RFU, LOC101060439 /// RAP1B / Fold change vs veh, LOC101060439 /// RAP1B / RFU, RFX7 / Fold change vs veh, RFX7 / RFU, GTPBP10 / Fold change vs veh, GTPBP10 / RFU, CNEP1R1 / Fold change vs veh, CNEP1R1 / RFU, BIVM-ERCC5 /// ERCC5 / Fold change vs veh, BIVM-ERCC5 /// ERCC5 / RFU, ILF3 / Fold change vs veh, ILF3 / RFU 11762660_at / Fold change /veh 11762660_at / RFU VCAN (11757783_s_at) / Fold change /veh VCAN (11757783_s_at) / RFU DDX43 (11728927_at) / Fold change /veh DDX43 (11728927_at) / RFU KRT8 (11758188_x_at) / Fold change /veh KRT8 (11758188_x_at) / RFU NKD1 (11759106_at) / Fold change /veh NKD1 (11759106_at) / RFU SRD5A1 (11742802_a_at) / Fold change /veh SRD5A1 (11742802_a_at) / RFU TPSAB1 /// TPSB2 (11721975_s_at) / Fold change /veh TPSAB1 /// TPSB2 (11721975_s_at) / RFU GSTM3 (11746129_a_at) / Fold change /veh GSTM3 (11746129_a_at) / RFU IL23R (11737362_x_at) / Fold change /veh IL23R (11737362_x_at) / RFU TMEM51 (11727254_a_at) / Fold change /veh TMEM51 (11727254_a_at) / RFU PIWIL2 (11732686_x_at) / Fold change /veh PIWIL2 (11732686_x_at) / RFU ORM1 (11744905_x_at) / Fold change /veh ORM1 (11744905_x_at) / RFU CCDC152 (11743942_at) / Fold change /veh CCDC152 (11743942_at) / RFU ECM1 (11717891_a_at) / Fold change /veh ECM1 (11717891_a_at) / RFU IL23R (11748794_a_at) / Fold change /veh IL23R (11748794_a_at) / RFU TNFAIP8L3 (11732012_x_at) / Fold change /veh TNFAIP8L3 (11732012_x_at) / RFU MBOAT4 (11741988_at) / Fold change /veh MBOAT4 (11741988_at) / RFU 11764193_at / Fold change /veh 11764193_at / RFU TMEM53 (11763286_at) / Fold change /veh TMEM53 (11763286_at) / RFU MAGEB2 (11727129_at) / Fold change /veh MAGEB2 (11727129_at) / RFU TMEM200A (11744735_a_at) / Fold change /veh TMEM200A (11744735_a_at) / RFU CCDC152 (11751479_a_at) / Fold change /veh CCDC152 (11751479_a_at) / RFU FAM211A (11726209_a_at) / Fold change /veh FAM211A (11726209_a_at) / RFU RGS16 (11746705_a_at) / Fold change /veh RGS16 (11746705_a_at) / RFU VCAN (11755009_s_at) / Fold change /veh VCAN (11755009_s_at) / RFU RHOB (11743442_s_at) / Fold change /veh RHOB (11743442_s_at) / RFU RGS16 (11720943_a_at) / Fold change /veh RGS16 (11720943_a_at) / RFU RGS16 (11720944_at) / Fold change /veh RGS16 (11720944_at) / RFU, VPS4B / Fold change vs veh, VPS4B / RFU, CREB1 / Fold change vs veh, CREB1 / RFU, DNAJC13 / Fold change vs veh, DNAJC13 / RFU, GNAQ / Fold change vs veh, GNAQ / RFU, CDK5R1 / Fold change vs veh, CDK5R1 / RFU, ZRANB3 / Fold change vs veh, ZRANB3 / RFU, CUL4A / Fold change vs veh, CUL4A / RFU, CCNY / Fold change vs veh, CCNY / RFU, UFL1 / Fold change vs veh, UFL1 / RFU, COG3 / Fold change vs veh, COG3 / RFU, DIAPH2 / Fold change vs veh, DIAPH2 / RFU, SKA2 / Fold change vs veh, SKA2 / RFU, AFF3 / Fold change vs veh, AFF3 / RFU, LMF1 / Fold change vs veh, LMF1 / RFU, IPO11 / Fold change vs veh, IPO11 / RFU, DFFB / Fold change vs veh, DFFB / RFU, FOXP1 / Fold change vs veh, FOXP1 / RFU, CARD8 / Fold change vs veh, CARD8 / RFU, STRN3 / Fold change vs veh, STRN3 / RFU, ADK / Fold change vs veh, ADK / RFU, RASSF2 / Fold change vs veh, RASSF2 / RFU, WIPF1 / Fold change vs veh, WIPF1 / RFU, LARP1B / Fold change vs veh, LARP1B / RFU, RASA1 / Fold change vs veh, RASA1 / RFU, RB1 / Fold change vs veh, RB1 / RFU, PPFIA1 / Fold change vs veh, PPFIA1 / RFU, MAT2A / Fold change vs veh, MAT2A / RFU, CCT5 / Fold change vs veh, CCT5 / RFU, WDR92 / Fold change vs veh, WDR92 / RFU, CUX1 / Fold change vs veh, CUX1 / RFU, TTC7A / Fold change vs veh, TTC7A / RFU, TMEM135 / Fold change vs veh, TMEM135 / RFU, DEPTOR / Fold change vs veh, DEPTOR / RFU, CPM / Fold change vs veh, CPM / RFU, DNAJB6 / Fold change vs veh, DNAJB6 / RFU, CACNA2D3 / Fold change vs veh, CACNA2D3 / RFU, DTX4 / Fold change vs veh, DTX4 / RFU, TFCP2 / Fold change vs veh, TFCP2 / RFU, GMCL1 /// GMCL1P1 / Fold change vs veh, GMCL1 /// GMCL1P1 / RFU, AEBP2 / Fold change vs veh, AEBP2 / RFU, SNHG1 /// SNORD22 /// SNORD25 /// SNORD26 /// SNORD27 /// SNORD28 /// SNORD29 /// SNORD31 / Fold change vs veh, SNHG1 /// SNORD22 /// SNORD25 /// SNORD26 /// SNORD27 /// SNORD28 /// SNORD29 /// SNORD31 / Fold change (Aza/veh), C12orf56 (ProbeSet 11735607_a_at) / Fold change (ACY-1035/veh), C12orf56 (ProbeSet 11735607_a_at) / Fold change (Aza/veh), FGFR1OP (ProbeSet 11751329_s_at) / Fold change (ACY-1035/veh), FGFR1OP (ProbeSet 11751329_s_at) / Fold change (Aza/veh), VPS36 (ProbeSet 11739960_a_at) / Fold change (ACY-1035/veh), VPS36 (ProbeSet 11739960_a_at) / RFU SYPL1 (11715823_x_at) / Fold change /veh SYPL1 (11715823_x_at) / RFU IGFBP7 (11715501_s_at) / Fold change /veh IGFBP7 (11715501_s_at) / RFU REEP3 (11722064_at) / Fold change /veh REEP3 (11722064_at) / RFU IGLL1 (11728026_x_at) / Fold change /veh IGLL1 (11728026_x_at): dose or concentration left out as unconfirmed
# Conditions: ProbeSet 11741123_x_at; LIST D
compound,measurement,value
Nc1ncn([C@@H]2O[C@H](CO)[C@@H](O)[C@H]2O)c(=O)n1 [azacitidine],"RFU, ADK",188.85 RFU
